# From patent publication US8575181B2, “Purine derivatives for use in the treatment of allergic, inflammatory and infectious diseases” (GlaxoSmithKline LLC, priority 2008, dated 2013)
# Tests used:
# Format in all cases: cell-based
# Interferon-α [1] = test: Induction of Interferon-α using cryopreserved human PBMCs; conditions: PBMC, 24 h, 24 h incubation, normalised to 1 uM resiquimod and DMSO, read-out: mean pEC50 (induction of Interferon-α) (converted)
# Experimental: Assay for the Induction of Interferon-α Using Cryopreserved Human Peripheral Blood Mononuclear Cells (PBMCs)
# Compounds were dissolved in DMSO. Serial 2-fold dilutions with DMSO were prepared and 0.25 μl dispensed into 384-well clear Greiner polypropylene plates.
# Blood samples of up to 200 ml were obtained from healthy human donors. Whole blood in 25 ml volumes was overlaid onto 15 ml Ficoll gradients in Leucosep tubes, and centrifuged at 1000 g for 20 min. Cells in the band at the plasma/histopaque interface were carefully removed and washed twice with PBS (centrifuged at 400 g for 5 min to harvest). The final pellet was resuspended in freezing medium (90% Heat-inactivated serum, 10% DMSO) to a cell concentration of 4×10^7 cells/ml. The resuspended cells were then cryopreserved (frozen) using a rate controlled freezer, and stored at −140° C. for up to 4 months.
# Incubation and Assay for Interferon-α
# Immediately prior to assay, vials of cryopreserved (frozen) PBMCs were thawed rapidly in a water bath at 37° C. A 1:10 dilution of the cells in trypan blue was prepared and counted. The PBMCs were then diluted in growth media [RPMI 1640 containing 10% fetal calf serum (invitrogen), Penicillin+[…] (Gibco cat. #25030-024, 1:50), L-Glutamine 2 mM, and 1000 units/ml recombinant human IFN-gamma (Preprotech catalogue #300-02)] to a density of 1×10^6 cells/ml, and 50 ul/well dispensed to 384-well clear Greiner polypropylene plates containing 0.25 μl DMSO or test compound in 0.25 μl DMSO. […] Plates were incubated for 24 h at 37° C. in 5% CO2.
# A multi-isoform immunoassay was used to quantify IFN-α in PBMC supernatants. Rabbit polyclonal antibody against human IFN-α (catalogue number 31101, Stratech Scientific) was diluted 1:10000 in assay buffer (RPMI 1640 containing 10% fetal calf serum, Invitrogen) and 20 μl was added to each well of an MSD (Meso-Scale Discovery) single small-spot 384-well GAR (goat anti-rabbit antibody coated) plate. The plate was incubated for 1 h at room temperature with vigorous shaking. Following three washes with PBS, 20 μl of cell supernatant were added to each well of the plate. The plate was then incubated for 1 h at room temperature with vigorous shaking. A pair of monoclonal antibodies to IFN-α (catalogue numbers 21100 and 21112, Stratech Scientific) were labelled with sulfo-TAG (MSD), diluted 1:1000 in assay buffer and 20 μl added to each well of the plate. The plate was further incubated for 1 h at room temperature with vigorous shaking. Following three washes with PBS, 30 μl of ×2 T buffer (MSD) was added to each well and the plate was read on an MSD Sector 6000 plate reader.
# Data were normalised to internal plate controls of 1 uM resiquimod (n=16) and DMSO (n=16). pEC50 values were derived by 4-parameter curve fit with IRLS in ActivityBase, from 11-point, two-fold serial dilution of test compounds.
# TNF-α = test: Induction of TNF-α using fresh human PBMCs; conditions: PBMC, two donors, 24 hr incubation, percentage of 2 μM resiquimod control, read-out: mean pEC50 for induction of TNF-α (converted)
# Experimental: (§1) Assay for the Induction of Interferon-α and TNF-α Using Fresh Human Peripheral Blood Mononuclear Cells (PBMCs)
# (§2) Compounds were dissolved and serially diluted in DMSO to give 100× the required concentration range using a Biomek 2000. 1 ul of test compound was transferred into 96-well tissue culture plates using a Biomek FX. Each compound was assayed in duplicate for each donor. Each plate contained a dilution series of the TLR7/8 agonist resiquimod as standard and Column 11 contained 1 μl of 200 μM resiquimod (giving a 2 μM final concentration, used to define the approximate maximal response to resiquimod).
# (§3) Blood samples from two human donors were collected into sodium heparin (10 U/ml). 25 ml volumes of whole blood were overlaid onto 15 mls Histopaque in Leucosep tubes which were centrifuged at 800 g for 20 min and the band at the plasma/histopaque interface carefully removed. The collected cells were centrifuged at 2500 rpm for 10 min and the pellet resuspended in 10 ml of media (RPMI 1640 (Low endotoxin) supplemented with 10% v/v foetal calf serum (FCS, low endotoxin) 100 U/ml penicillin G, 100 μg/ml streptomycin, 10 mM L-glutamine and 1× non-essential amino acids). A 1:20 dilution of the cells was prepared using trypan blue & the cells counted using a haemocytometer. The PBMCs were diluted to give a final concentration of 2×10^6/ml and 100 ul of this cells suspension was added to wells containing 1 μl of diluted test compound.
# (§4) Incubation and Assays for Interferon-α and TNF-α
# (§5) The cell preparations were incubated for 24 hr (37° C., 95% air, 5% CO2) after which a sample of the supernatant was removed using the Biomek FX and assayed for both IFN-α and TNF-α using the MSD (Mesoscale Discovery) electrochemiluminescence assay platform. The IFN-α assay was carried out similarly to that described above. The TNF-α assay was carried out as per kit instructions (Cat No K111BHB).
# (§6) Cytokine released was expressed as a percentage of the 2 μM resiquimod control (column 11). This percentage was plotted against compound concentration and the pEC50 for the response determined by non-linear least squares curve fitting. For the IFN-α responses generally a 4 parameter logistic model was selected. For the TNF responses where a clear maximum response was obtained (i.e. a well defined plateau in the response was observed) then a 4 parameter model was generally used. If the upper asymptote of the curve wasn't well defined then the curve fitting was generally constrained to a maximal response of 100% (i.e. to the response to 2 μM resiquimod) or to the response of the highest concentration tested if this was greater than the resiquimod response. Some curves were bell shaped for one or both cytokines and the cytokine data on the down slope of the bell shaped response (i.e. concentrations above those giving the maximal response) were generally excluded from the fit, usually with the exception of the concentration immediately above the peak response. Curve fitting thus concentrated on the up slope of the dose response curve.
# Interferon-α [2] = test: Induction of Interferon-α using fresh human PBMCs; conditions: PBMC, two donors, 24 hr incubation, percentage of 2 μM resiquimod control, read-out: mean pEC50 for induction of IFN-α (converted)
# Experimental: as §1, §2, §3, §4, §5, §6
Compound,EC50 (Interferon-α [1]) [µM],EC50 (TNF-α) [µM],EC50 (Interferon-α [2]) [µM]
"CCCCOc1nc(N)c2[nH]c(=O)n(CCCN[C@H]3CCCO3)c2n1 [Example 1, 6-Amino-2-(butyloxy)-9-{3-[(2R)-tetrahydro-2-furanylamino]propyl}-7,9-dihydro-8H-purin-8-one]",< 10,,
"CCCCOc1nc(N)c2[nH]c(=O)n(CCCN[C@@H]3CCCO3)c2n1 [Example 2, 6-Amino-2-(butyloxy)-9-{3-[(2S)-tetrahydro-2-furanylamino]propyl}-7,9-dihydro-8H-purin-8-one]",< 10,,
"CCCCOc1nc(N)c2[nH]c(=O)n(CCCNCC3CCCO3)c2n1 (centres unmarked) [Example 3, 6-Amino-2-(butyloxy)-9-{3-[(tetrahydro-2-furanylmethyl)amino]propyl}-7,9-dihydro-8H-purin-8-one]",< 10,> 10,< 1
"CCCCOc1nc(N)c2[nH]c(=O)n(CCCNCC3CCOC3)c2n1 (centres unmarked) [Example 4, 6-Amino-2-(butyloxy)-9-{3-[(tetrahydro-3-furanylmethyl)amino]propyl}-7,9-dihydro-8H-purin-8-one]",< 10,,
"CCCCOc1nc(N)c2[nH]c(=O)n(CCCNCCC3CCCO3)c2n1 (centres unmarked) [Example 5, 6-Amino-2-(butyloxy)-9-(3-{[2-(tetrahydro-2-furanyl)ethyl]amino}propyl)-7,9-dihydro-8H-purin-8-one]",< 10,> 10,< 1
"CCCCOc1nc(N)c2[nH]c(=O)n(CCCNCC3CCCCO3)c2n1 (centres unmarked) [Example 6, 6-Amino-2-(butyloxy)-9-{3-[(tetrahydro-2H-pyran-2-ylmethyl)amino]propyl}-7,9-dihydro-8H-purin-8-one]",< 10,,
"CCCCOc1nc(N)c2[nH]c(=O)n(CCCNCC3CCCOC3)c2n1 (centres unmarked) [Example 7, 6-Amino-2-(butyloxy)-9-{3-[(tetrahydro-2H-pyran-3-ylmethyl)amino]propyl}-7,9-dihydro-8H-purin-8-one]",< 10,,
"CCCCOc1nc(N)c2[nH]c(=O)n(CCCNCC3CCOCC3)c2n1 [Example 8, 6-Amino-2-(butyloxy)-9-{3-[(tetrahydro-2H-pyran-4-ylmethyl)amino]propyl}-7,9-dihydro-8H-purin-8-one]",< 10,> 10,< 1
"CCCCOc1nc(N)c2[nH]c(=O)n(CCCNCCC3CCCCO3)c2n1 (centres unmarked) [Example 9, 6-Amino-2-(butyloxy)-9-(3-{[2-(tetrahydro-2H-pyran-2-yl)ethyl]amino}propyl)-7,9-dihydro-8H-purin-8-one]",< 10,> 10,< 1
"CCCCOc1nc(N)c2[nH]c(=O)n(CCCNCCC3CCCOC3)c2n1 (centres unmarked) [Example 10, 6-Amino-2-(butyloxy)-9-(3-{[2-(tetrahydro-2H-pyran-3-yl)ethyl]amino}propyl)-7,9-dihydro-8H-purin-8-one]",< 10,,
"CCCCOc1nc(N)c2[nH]c(=O)n(CCCNCCC3CCOCC3)c2n1 [Example 11, 6-Amino-2-(butyloxy)-9-(3-{[2-(tetrahydro-2H-pyran-4-yl)ethyl]amino}propyl)-7,9-dihydro-8H-purin-8-one]",< 10,,
"CCC[C@H](C)Oc1nc(N)c2[nH]c(=O)n(CCCNCC3CCCO3)c2n1 (stereo partly drawn) [Example 12, 6-Amino-2-{[(1S)-1-methylbutyl]oxy}-9-{3-[(tetrahydro-2-furanylmethyl)amino]propyl}-7,9-dihydro-8H-purin-8-one]",,> 1,< 0.1
"CCC[C@H](C)Oc1nc(N)c2[nH]c(=O)n(CCCNCCC3CCCO3)c2n1 (stereo partly drawn) [Example 13, 6-Amino-2-{[(1S)-1-methylbutyl]oxy}-9-(3-{[2-(tetrahydro-2-furanyl)ethyl]amino}propyl)-7,9-dihydro-8H-purin-8-one]",,> 1,< 0.1
"CCC[C@H](C)Oc1nc(N)c2[nH]c(=O)n(CCCNCC3CCOCC3)c2n1 [Example 14, 6-Amino-2-{[(1S)-1-methylbutyl]oxy}-9-{3-[(tetrahydro-2H-pyran-4-ylmethyl)amino]propyl}-7,9-dihydro-8H-purin-8-one]",< 10,> 1,< 0.1
"CCCCNc1nc(N)c2[nH]c(=O)n(CCCNCC3CCCO3)c2n1 (centres unmarked) [Example 15, 6-Amino-2-(butylamino)-9-{3-[(tetrahydro-2-furanylmethyl)amino]propyl}-7,9-dihydro-8H-purin-8-one]",< 10,,
"CCCCNc1nc(N)c2[nH]c(=O)n(CCCNCCC3CCCO3)c2n1 (centres unmarked) [Example 16, 6-Amino-2-(butylamino)-9-(3-{[2-(tetrahydro-2-furanyl)ethyl]amino}propyl)-7,9-dihydro-8H-purin-8-one]",< 10,> 10,< 1
"CCCCNc1nc(N)c2[nH]c(=O)n(CCCNCC3CCOCC3)c2n1 [Example 17, 6-Amino-2-(butylamino)-9-{3-[(tetrahydro-2H-pyran-4-ylmethyl)amino]propyl}-7,9-dihydro-8H-purin-8-one]",< 10,,
"CCCCNc1nc(N)c2[nH]c(=O)n(CCCNCCC3CCCCO3)c2n1 (centres unmarked) [Example 18, 6-Amino-2-(butylamino)-9-(3-{[2-(tetrahydro-2H-pyran-2-yl)ethyl]amino}propyl)-7,9-dihydro-8H-purin-8-one]",< 10,,
